pEC50: −log10 of the molar value. Counter-ions that a name gives are not always drawn. Like-named read-outs stand apart in the source and are kept apart here.
Molecular target: TPK enzyme (Homo sapiens (Human), UniProt Q9H3S4)
Experiment: TPK enzyme activity test
Type: biochemical
Settings: for Emax: calculated with the effect of DMSO on TPK enzyme activity as 100%; for pEC50: promoting effect on TPK enzyme activity

Sequence of TPK enzyme (Q9H3S4 whole entry): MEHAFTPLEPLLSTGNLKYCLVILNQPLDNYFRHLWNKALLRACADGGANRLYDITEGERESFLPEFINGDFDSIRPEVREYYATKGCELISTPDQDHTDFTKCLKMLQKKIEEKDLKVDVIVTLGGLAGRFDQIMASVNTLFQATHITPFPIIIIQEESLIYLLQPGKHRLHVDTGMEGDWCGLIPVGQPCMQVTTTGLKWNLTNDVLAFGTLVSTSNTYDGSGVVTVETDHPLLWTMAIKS

Emax (read-out: Emax)	pEC50	Emax	SMILES
159%	6.96		Cc1ccc2[nH]c3c(=O)n(CCC(=O)N4CCN(c5cccc(Cl)c5Cl)CC4)cnc3c2c1 [Compound 1, 3-(3-(4-(2,3-dichlorophenyl)piperazin-1-yl)-3-oxopropyl)-8-methyl-3,5-dihydro-4H-pyrimido[5,4-b]indol-4-one]
147%			O=C(Cn1cnc2c(oc3ccccc32)c1=O)N1CCN(c2cccc(C(F)(F)F)c2)CC1 [Compound 58]
204%	5.39		O=C(N[C@@H](Cc1ccc(F)cc1)C(=O)O)OCC1c2ccccc2-c2ccccc21 [Compound 141]
166%	5.58		Cc1ccc2[nH]c3c(=O)n(CCC(=O)N4CCN(c5cccc(N)c5)CC4)cnc3c2c1 [Compound 26, 3-(3-(4-(3-aminophenyl)piperazin-1-yl)-3-oxopropyl)-8-methyl-3,5-dihydro-4H-pyrimido[5,4-b]indol-4-one]
131%	5.25		COC(=O)C1CCCCN1CCCN1c2ccccc2Sc2ccccc21 (stereo not shown) [Formate salt of 191, methyl 1-(3-(10H-phenothiazin-10-yl)propyl)piperidin-2-carboxylate]
178%	6.00		Cc1ccc2[nH]c3c(=O)n(CCC(=O)NCc4cccc(C(F)(F)F)c4)cnc3c2c1 [Compound 97]
176%	5.58		O=C1CCCCN1CCCN1c2ccccc2Sc2ccccc21 [Compound 186, 1-(3-(10H-phenothiazin-10-yl)propyl)piperidin-2-one]
122%			CC(C)c1ccc(CNC(=O)CCn2cnc3c([nH]c4ccc(F)cc43)c2=O)cc1 [Compound 118]
157%	5.41		Cc1ccc2c(c1)-c1nc(=O)n(CCCC(=O)N3CCC(Cc4ccc(F)cc4)CC3)cc1CO2 [Compound 220, 3-(4-(4-(4-fluorobenzyl)piperidin-1-yl)-4-oxobutyl)-9-methyl-3,5-dihydro-2H-chromeno[4,3-d]pyrimidin-2-one]
210%	5.97		Cc1ccc2[nH]c3c(=O)n(CCCCN4CCN(c5cccc(C(F)(F)F)c5)CC4)cnc3c2c1 [Formate salt of 48, 8-methyl-3-(4-(4-(3-(trifluoromethyl)phenyl)piperazin-1-yl)butyl)-3,5-dihydro-4H-pyrimido[5,4-b]indol-4-one]
167%	5.86		Cc1ccc(C)c(N2CCN(C(=O)CCn3cnc4c([nH]c5ccc(C)cc54)c3=O)CC2)c1 [Compound 34]
	6.30	143%	O=c1c2c(ncn1CCCN1CCN(c3cccc(Cl)c3Cl)CC1)-c1ccccc1CCC2 [Formate salt of 222, 3-(3-(4-(2,3-dichlorophenyl)piperazin-1-yl)propyl)-3,5,6,7-tetrahydro-4H-benzo[6,7]cyclohepta[1,2-d]pyrimidin-4-one Formate]
123%			Cc1ccc2[nH]c3c(=O)n(CCC(=O)NCc4cccc(O)c4)cnc3c2c1 [Compound 82, N-(3-hydroxybenzyl)-3-(8-methyl-4-oxo-4,5-dihydro-3H-pyrimido[5,4-b]indol-3-yl)propanamide]
123%			Cc1ccc2[nH]c3c(=O)n(CCC(=O)N4CCN(c5ccc(F)cc5)CC4)cnc3c2c1 [Compound 33]
189%	5.22		O=C(CCn1cnc2c(oc3ccc(F)cc32)c1=O)N1CCC(O)(c2cccc(C(F)(F)F)c2)CC1 [Compound 151, 8-fluoro-3-(3-(4-hydroxy-4-(3-(trifluoromethyl)phenyl)piperidin-1-yl)-3-oxopropyl)benzofuro[3,2-d]pyrimidin-4(3H)-one]
137%	6.24		COc1ccc2[nH]c(=O)c3c(c2c1)CN(CCCN1CCN(c2cccc(Cl)c2Cl)CC1)C3 [Compound 235, 2-(3-(4-(2,3-dichlorophenyl)piperazin-1-yl)propyl)-8-methoxy-1,2,3,5-tetrahydro-4H-pyrrolo[3,4-c]quinolin-4-one]
137%			COc1cccc(N2CCN(C(=O)CCn3cnc4c([nH]c5ccc(C)cc54)c3=O)CC2)c1 [Compound 43]
126%			COC(=O)c1cccc(CNC(=O)CCn2cnc3c([nH]c4ccc(C)cc43)c2=O)c1 [Compound 83, methyl 3-((3-(8-methyl-4-oxo-4,5-dihydro-3H-pyrimido[5,4-b]indol-3-yl)propanamido)methyl)benzoate]
171%	5.70		O=C(CCn1cnc2c(oc3ccc(F)cc32)c1=O)N1CCC(Cc2ccc(F)cc2)CC1 [Compound 150, 8-fluoro-3-(3-(4-(4-fluorobenzyl)piperidin-1-yl)-3-oxopropyl)benzofuro[3,2-d]pyrimidin-4(3H)-one]
172%	5.92		Cc1ccc2[nH]c3c(=O)n(CCC(=O)N4CCN(c5cccc(C(F)(F)F)c5)CC4)cnc3c2c1 [Compound 61]
178%	5.13		O=C1CCCCN1CCCCCCN1CCSc2ccc(C(F)(F)F)cc21 [Compound 193, 1-(6-(6-(trifluoromethyl)-2,3-dihydro-4H-benzo[b][1,4]thiazin-4-yl)hexyl)piperidin-2-one]
		122.50%	Cc1ccc2[nH]c3c(=O)n(CCC(=O)N4CCN(c5ccc(F)cc5)CC4)cnc3c2c1 [Compound 46]
135%			COc1ccccc1N1CCN(C(=O)CCn2cnc3c([nH]c4ccc(C)cc43)c2=O)CC1 [Compound 47]
224%	5.04		C[C@H](OC(C)(C)C)[C@@H](NC(=O)OCC1c2ccccc2-c2ccccc21)C(=O)O [Compound 142]
	6.21		Cc1ccc2ncc3c(=O)n(CCCC(=O)N4CCC(Cc5ccc(F)cc5)CC4)cnc3c2c1 [Compound 218, 3-(4-(4-(4-fluorobenzyl)piperidin-1-yl)-4-oxobutyl)-9-methylpyrimido[5,4-c]quinolin-4(3H)-one]
142%			O=C(CCn1cnc2c([nH]c3ccc(C(F)(F)F)cc32)c1=O)NCc1cccc(C(F)(F)F)c1 [Compound 71, 3-(4-oxo-8-(trifluoromethyl)-4,5-dihydro-3H-pyrimido[5,4-b]indol-3-yl)-N-(3-(trifluoromethyl)benzyl)propanamide]
119%	6.31		Cc1ccc2[nH]c3c(=O)n(CCC(=O)N4CCC(N(C)c5cccc(Cl)c5Cl)CC4)cnc3c2c1 [Compound 166, 3-(3-(4-((2,3-dichlorophenyl)(methyl)amino)piperidin-1-yl)-3-oxopropyl)-8-methyl-3,5-dihydro-4H-pyrimido[5,4-b]indol-4-one]
129%			O=C1CCc2ccc(OCCCCCCN3c4ccccc4Sc4ccc(C(F)(F)F)cc43)cc2N1 [Compound 207, 7-((6-(2-(trifluoromethyl)-10H-phenothiazin-10-yl)hexyl)oxy)-3,4-dihydroquinolin-2(1H)-one]
124%			Cc1ccc2[nH]c3c(=O)n(CCC(=O)N4CCN(c5cccc(C(N)=O)c5)CC4)cnc3c2c1 [Compound 28, 3-(4-(3-(8-methyl-4-oxo-4,5-dihydro-3H-pyrimido[5,4-b]indol-3-yl)propanoyl)piperazin-1-yl)benzamide]
124%			Cc1ccc2[nH]c3c(=O)n(CCC(=O)NCc4cccc(S(N)(=O)=O)c4)cnc3c2c1 [Compound 88]

SMILES	Emax (read-out: Emax)	pEC50	Emax
COc1ccc2[nH]c(=O)c3c(ccn3CCCN3CCN(c4cccc(C(F)(F)F)c4)CC3)c2c1 [Compound 210, 8-methoxy-3-(3-(4-(3-(trifluoromethyl)phenyl)piperazin-1-yl)propyl)-3,5-dihydro-4H-pyrrolo[2,3-c]quinolin-4-one]	166%	5.74	

— US20250388584A1, “TPK AGONIST AND METHOD FOR TREATING NEURODEGENERATIVE DISEASES USING SAME” (SHANGHAI RAISING PHARMACEUTICAL CO., LTD., priority 2022, published 2025)
